ChEMBL document CHEMBL1142919, “Naphthoindole-based analogues of tryptophan and tryptamine: synthesis and cytotoxic properties” (Bioorg Med Chem, 2007)
Active and inactive are the calls of the source. The calls are words filed in the database; no cut-off is given here.

Tests used:
[1] = test system: K562; experiment: Antiproliferative activity against human K562 cells after 72 hrs by MTT test; format: functional, cell-based; conditions: K562, 72 h
[2] = Antiproliferative activity against human multidrug-resistant K562i/S9 cells expressing Pgp after 72 hrs by MTT test; format: functional, cell-based; conditions: K562i/S9, 72 h
[3] = test system: K562; experiment: Resistance index, Ratio of IC50 for human drug-resistant K562i/S9 cells to IC50 for human K562 cells; format: functional
[4] = test system: HCT-116; experiment: Antiproliferative activity against human HCT116 cells expressing wild-type p53 after 72 hrs by MTT test; format: functional, cell-based; conditions: HCT-116, 72 h
[5] = Antiproliferative activity against human p53 deficient HCT116 p53-/- cells after 72 hrs by MTT test; format: functional, cell-based; conditions: HCT-116, 72 h
[6] = test system: HCT-116; experiment: Resistance index, Ratio of IC50 for human p53 deficient HCT116 p53-/- cells to IC50 for human wild type HCT116 cells; format: functional
[7] = biological target: T1, DNA topoisomerase 1 (Homo sapiens) (UniProt P11387); experiment: Inhibition of topoisomerase 1 assessed as attenuation of DNA relaxation
T1 sequence (whole entry): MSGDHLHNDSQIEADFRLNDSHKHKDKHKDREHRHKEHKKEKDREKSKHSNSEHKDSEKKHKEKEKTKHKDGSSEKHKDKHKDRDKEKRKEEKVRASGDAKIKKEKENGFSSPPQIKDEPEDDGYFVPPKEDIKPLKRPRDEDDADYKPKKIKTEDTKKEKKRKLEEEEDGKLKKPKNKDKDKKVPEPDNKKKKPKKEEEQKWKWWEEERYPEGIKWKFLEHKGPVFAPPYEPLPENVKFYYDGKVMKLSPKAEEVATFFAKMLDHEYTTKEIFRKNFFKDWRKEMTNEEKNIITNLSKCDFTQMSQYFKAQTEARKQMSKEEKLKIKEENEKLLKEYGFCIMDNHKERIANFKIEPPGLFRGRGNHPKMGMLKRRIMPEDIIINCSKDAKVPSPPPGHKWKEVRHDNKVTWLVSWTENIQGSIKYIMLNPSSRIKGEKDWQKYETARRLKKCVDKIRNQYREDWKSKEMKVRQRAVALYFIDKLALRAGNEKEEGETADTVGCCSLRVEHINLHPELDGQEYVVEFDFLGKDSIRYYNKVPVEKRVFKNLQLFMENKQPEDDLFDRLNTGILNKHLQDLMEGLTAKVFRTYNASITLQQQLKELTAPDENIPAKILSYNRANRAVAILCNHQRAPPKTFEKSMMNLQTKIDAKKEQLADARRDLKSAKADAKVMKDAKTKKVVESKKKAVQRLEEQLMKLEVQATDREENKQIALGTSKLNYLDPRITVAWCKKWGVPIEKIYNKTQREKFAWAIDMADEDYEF

[8] = biological target: T1, DNA topoisomerase 1 (Homo sapiens); experiment: Inhibition of topoisomerase 1 at 3 uM
[9] = biological target: T1, DNA topoisomerase 1 (Homo sapiens); experiment: Inhibition of topoisomerase 1 at >50 uM

SMILES | IC50 [1] | IC50 [2] | Ratio IC50 [3] | IC50 [4] | IC50 [5] | Ratio IC50 [6] | Activity [7] | Activity [8] | Activity [9]
NCCc1c[nH]c2c(O)c3c(c(O)c12)C(=O)c1ccccc1C3=O | 4 µM | 2.2 µM | 0.6 | 1.1 µM | 1.2 µM | 1.1 | Dose-dependent effect | Active | 
NC(Cc1c[nH]c2c(O)c3c(c(O)c12)C(=O)c1ccccc1C3=O)C(=O)O (stereo unspecified) | > 50 µM |  |  | > 50 µM |  |  |  |  | 
CCOC(=O)C(N)Cc1c[nH]c2c(O)c3c(c(O)c12)C(=O)c1ccccc1C3=O (stereo unspecified) | > 50 µM |  |  | 14.9 µM |  |  |  |  | 
CC(N)Cc1c[nH]c2c(O)c3c(c(O)c12)C(=O)c1ccccc1C3=O (stereo unspecified) | 12 µM | 13.4 µM | 1.1 | 4.8 µM | 5 µM | 1 |  |  | 
COc1cccc2c1C(=O)c1c(O)c3c(c(O)c1C2=O)C[C@@](O)(C(=O)CO)C[C@@H]3O[C@H]1C[C@H](N)[C@H](O)[C@H](C)O1 [DOXORUBICIN] |  |  |  | 1.4 µM | 4.4 µM |  |  |  | Active
